Experimental data taken from patent publication US9999619B2, “Piperidin-4-yl azetidine derivatives as JAK1 inhibitors” (Incyte Corporation, priority 2010, dated 2018).

Experiments:
Format in all cases: biochemical
[1] = biological target: human JAK1 (a.a. 837-1142) (Homo sapiens, UniProt P23458); assay: In vitro JAK kinase assay (HTRF, phosphorylation of a biotinylated peptide), JAK1; conditions: measured at 1 mM ATP
Procedure, shortened: (§1)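 N-terminal His-tagged catalytic domains, baculovirus-expressed in insect cells, phosphorylated a biotinylated peptide for 1 hr at room temperature. EDTA stop was followed by SA-APC and Eu-Py20 antibody for 40 minutes, with phosphopeptide read by HTRF.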

[2] = biological target: human JAK1 (a.a. 837-1142); assay: as above; conditions: ratio of JAK2 IC50 to JAK1 IC50, measured at 1 mM ATP
Procedure, shortened: as §1

[3] = biological target: Jak2 (a.a. 828-1132) (Homo sapiens (Human), UniProt O60674); assay: In vitro JAK kinase assay (HTRF, phosphorylation of a biotinylated peptide), JAK2; conditions: measured at 1 mM ATP
Chain of Jak2 (a.a. 828-1132) (O60674 828-1132): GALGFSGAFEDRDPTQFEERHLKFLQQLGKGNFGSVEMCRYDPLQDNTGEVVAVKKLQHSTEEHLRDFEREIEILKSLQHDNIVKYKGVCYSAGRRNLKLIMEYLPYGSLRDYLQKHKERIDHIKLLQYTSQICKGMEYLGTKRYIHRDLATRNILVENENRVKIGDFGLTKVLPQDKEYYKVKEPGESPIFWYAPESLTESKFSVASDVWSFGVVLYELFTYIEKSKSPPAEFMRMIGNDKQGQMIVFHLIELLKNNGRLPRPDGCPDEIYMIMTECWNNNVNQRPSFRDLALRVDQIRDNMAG
Procedure, shortened: as §1

| SMILES | IC50 [1] [nM] | IC50 Ratio JAK2/JAK1 [2] | IC50 [3] [nM] |
| --- | --- | --- | --- |
| N#CCC1(n2cc(-c3ncnc4[nH]ccc34)cn2)CN(C2CCN(Cc3cccc(Cl)c3Cl)CC2)C1 [Example 219, {1-[1-(2,3-dichlorobenzyl)piperidin-4-yl]-3-[4-(7H-pyrrolo[2,3-d]pyrimidin-4-yl)-1H-pyrazol-1-yl]azetidin-3-yl}acetonitrile] | 5 to 20 | 2.4 | 10 to 50 |
| N#CCC1(n2cc(-c3ncnc4[nH]ccc34)cn2)CN(C2CCN(Cc3ccnc(C(F)(F)F)c3F)CC2)C1 [Example 231, {1-(1-{[3-fluoro-2-(trifluoromethyl)pyridin-4-yl]methyl}piperidin-4-yl)-3-[4-(7H-pyrrolo[2,3-d]pyrimidin-4-yl)-1H-pyrazol-1-yl]azetidin-3-yl}acetonitrile] | 5 to 20 | 5.1 | 50 to 100 |
| N#CCC1(n2ccc(-c3ncnc4[nH]ccc34)c2)CN(C2CCN(C(=O)c3cccc(C#N)c3)CC2)C1 [Example 262, 3-[(4-{3-(cyanomethyl)-3-[3-(7H-pyrrolo[2,3-d]pyrimidin-4-yl)-1H-pyrrol-1-yl]azetidin-1-yl}piperidin-1-yl)carbonyl]benzonitrile] | 5 to 20 | 7.4 | 50 to 100 |
| N#CCC1(n2cc(-c3ccnc4[nH]ccc34)cn2)CN(C2CCN(C(=O)c3cc(C(F)(F)F)ncc3Cl)CC2)C1 [Example 298, {1-{1-[5-chloro-2-(trifluoromethyl)isonicotinoyl]piperidin-4-yl}-3-[4-(1H-pyrrolo[2,3-b]pyridin-4-yl)-1H-pyrazol-1-yl]azetidin-3-yl}acetonitrile] | 20 to 30 | 2.8 | 50 to 100 |
| N#CCC1(n2cc(-c3ncnc4[nH]ccc34)cn2)CN(C2CCN(Cc3ccnc(Br)c3)CC2)C1 [Example 226, {1-{1-[(2-bromopyridin-4-yl)methyl]piperidin-4-yl}-3-[4-(7H-pyrrolo[2,3-d]pyrimidin-4-yl)-1H-pyrazol-1-yl]azetidin-3-yl}acetonitrile] | 5 to 20 | 1.9 | 10 to 50 |
| N#CCC1(n2cc(-c3ccnc4[nH]ccc34)cn2)CN(C2CCN(C(=O)Nc3ccncc3C(F)(F)F)CC2)C1 [Example 307, 4-{3-(cyanomethyl)-3-[4-(1H-pyrrolo[2,3-b]pyridin-4-yl)-1H-pyrazol-1-yl]azetidin-1-yl}-N-[3-(trifluoromethyl)pyridin-4-yl]piperidine-1-carboxamide] | 5 to 20 | 8.8 | 50 to 100 |
| N#CCC1(n2cc(-c3ncnc4[nH]ccc34)cn2)CN(C2CCN(S(=O)(=O)C3CCCC3)CC2)C1 [Example 253, {1-[1-(cyclopentylsulfonyl)piperidin-4-yl]-3-[4-(7H-pyrrolo[2,3-d]pyrimidin-4-yl)-1H-pyrazol-1-yl]azetidin-3-yl}acetonitrile] | ≤ 5 | 5.8 | ≤ 10 |
| CC(C)(C)C(=O)Nc1ncccc1CN1CCC(N2CC(CC#N)(n3cc(-c4ncnc5[nH]ccc45)cn3)C2)CC1 [Example 235] | 5 to 20 | 2.5 | 10 to 50 |
| N#CCC1(n2cc(-c3c(F)cnc4[nH]ccc34)cn2)CN(C2CCN(C(=O)c3ccnc(C(F)(F)F)n3)CC2)C1 [Example 353, [3-[4-(5-Fluoro-1H-pyrrolo[2,3-b]pyridin-4-yl)-1H-pyrazol-1-yl]-1-(1-{[2-(trifluoromethyl)pyrimidin-4-yl]carbonyl}piperidin-4-yl)azetidin-3-yl]acetonitrile] | 5 to 20 | 5.0 | 10 to 50 |
| CS(=O)(=O)N1CCC(N2CC(CC#N)(n3cc(-c4c(F)cnc5[nH]ccc45)cn3)C2)CC1 [Example 355, {3-[4-(5-Fluoro-1H-pyrrolo[2,3-b]pyridin-4-yl)-1H-pyrazol-1-yl]-1-[1-(methylsulfonyl)piperidin-4-yl]azetidin-3-yl}acetonitrile] | ≤ 5 | 3.1 | ≤ 10 |
| N#CCC1(n2ccc(-c3ncnc4[nH]ccc34)c2)CN(C2CCN(C(=O)Nc3ccc(F)cc3C(F)(F)F)CC2)C1 [Example 283, 4-{3-(Cyanomethyl)-3-[3-(7H-pyrrolo[2,3-d]pyrimidin-4-yl)-1H-pyrrol-1-yl]azetidin-1-yl}-N-[4-fluoro-2-(trifluoromethyl)phenyl]piperidine-1-carboxamide] | ≤ 5 | 35.6 | 50 to 100 |
| N#CCC1(n2ccc(-c3ncnc4[nH]ccc34)c2)CN(C2CCN(C(=O)c3ccc(O)c(C(F)(F)F)c3)CC2)C1 [Example 282, {1-{1-[4-hydroxy-3-(trifluoromethyl)benzoyl]piperidin-4-yl}-3-[3-(7H-pyrrolo[2,3-d]pyrimidin-4-yl)-1H-pyrrol-1-yl]azetidin-3-yl}acetonitrile] | 5 to 20 | 3.4 | 10 to 50 |
| N#CCC1(n2cc(-c3c(F)cnc4[nH]ccc34)cn2)CN(C2CCN(C(=O)c3ccc(O)cc3F)CC2)C1 [Example 323, {1-[1-(2-fluoro-4-hydroxybenzoyl)piperidin-4-yl]-3-[4-(5-fluoro-1H-pyrrolo[2,3-b]pyridin-4-yl)-1H-pyrazol-1-yl]azetidin-3-yl}acetonitrile] | ≤ 5 | 5.0 | ≤ 10 |

Further lines, results first:

| IC50 [1] [nM] | IC50 Ratio JAK2/JAK1 [2] | IC50 [3] [nM] | SMILES |
| --- | --- | --- | --- |
| ≤ 5 | 7.7 | 10 to 50 | CCCOC(=O)N1CCC(N2CC(CC#N)(n3cc(-c4ncnc5[nH]ccc45)cn3)C2)CC1 [Example 386, Propyl 4-{3-(cyanomethyl)-3-[4-(7H-pyrrolo[2,3-d]pyrimidin-4-yl)-1H-pyrazol-1-yl]azetidin-1-yl}piperidine-1-carboxylate] |
| ≤ 5 | 11.2 | 10 to 50 | N#CCC1(n2cc(-c3ncnc4[nH]ccc34)cn2)CN(C2CCN(C(=O)Nc3c(F)cccc3F)CC2)C1 [Example 156, 4-{3-(cyanomethyl)-3-[4-(7H-pyrrolo[2,3-d]pyrimidin-4-yl)-1H-pyrazol-1-yl]azetidin-1-yl}-N-(2,6-difluorophenyl)piperidine-1-carboxamide] |
| 5 to 20 | 5.6 | 10 to 50 | CC1(COC(=O)N2CCC(N3CC(CC#N)(n4cc(-c5ncnc6[nH]ccc56)cn4)C3)CC2)CC1 [Example 392, (1-methylcyclopropyl)methyl 4-{3-(cyanomethyl)-3-[4-(7H-pyrrolo[2,3-d]pyrimidin-4-yl)-1H-pyrazol-1-yl]azetidin-1-yl}piperidine-1-carboxylate] |
| 5 to 20 | 3.7 | 10 to 50 | N#CCC1(n2cc(-c3ncnc4[nH]ccc34)cn2)CN(C2CCN(C(=O)Nc3ccc(OC(F)(F)F)cc3)CC2)C1 [Example 182, 4-{3-(cyanomethyl)-3-[4-(7H-pyrrolo[2,3-d]pyrimidin-4-yl)-1H-pyrazol-1-yl]azetidin-1-yl}-N-[4-(trifluoromethoxy)phenyl]piperidine-1-carboxamide] |
| ≤ 5 | 5.5 | ≤ 10 | N#CCC1(n2cc(-c3ncnc4[nH]ccc34)cn2)CN(C2CCN(C(=O)c3sccc3Cl)CC2)C1 [Example 76, {1-{1-[(3-chloro-2-thienyl)carbonyl]piperidin-4-yl}-3-[4-(7H-pyrrolo[2,3-d]pyrimidin-4-yl)-1H-pyrazol-1-yl]azetidin-3-yl}acetonitrile] |
| ≤ 5 | 6.9 | ≤ 10 | COc1c(Br)cc(C(=O)N2CCC(N3CC(CC#N)(n4cc(-c5ncnc6[nH]ccc56)cn4)C3)CC2)cc1Br [Example 50, {1-[1-(3,5-dibromo-4-methoxybenzoyl)piperidin-4-yl]-3-[4-(7H-pyrrolo[2,3-d]pyrimidin-4-yl)-1H-pyrazol-1-yl]azetidin-3-yl}acetonitrile] |
| ≤ 5 | 4.6 | ≤ 10 | Cc1nc(S(=O)(=O)N2CCC(N3CC(CC#N)(n4cc(-c5ncnc6[nH]ccc56)cn4)C3)CC2)cn1C [Example 259, {1-{1-[(1,2-dimethyl-1H-imidazol-4-yl)sulfonyl]piperidin-4-yl}-3-[4-(7H-pyrrolo[2,3-d]pyrimidin-4-yl)-1H-pyrazol-1-yl]azetidin-3-yl}acetonitrile] |
| ≤ 5 | 24.4 | 50 to 100 | N#CCC1(n2cc(-c3ncnc4[nH]ccc34)cn2)CN(C2CCN(C(=O)OCc3cc(F)cc(F)c3)CC2)C1 [Example 395, 3,5-difluorobenzyl 4-{3-(cyanomethyl)-3-[4-(7H-pyrrolo[2,3-d]pyrimidin-4-yl)-1H-pyrazol-1-yl]azetidin-1-yl}piperidine-1-carboxylate] |
| ≤ 5 | 4.1 | ≤ 10 | Cc1ccc(C(=O)N2CCC(N3CC(CC#N)(n4cc(-c5ncnc6[nH]ccc56)cn4)C3)CC2)s1 [Example 80, {1-{1-[(5-methyl-2-thienyl)carbonyl]piperidin-4-yl}-3-[4-(7H-pyrrolo[2,3-d]pyrimidin-4-yl)-1H-pyrazol-1-yl]azetidin-3-yl}acetonitrile] |
| ≤ 5 | 18.9 | 50 to 100 | N#CCC1(n2cc(-c3ncnc4[nH]ccc34)cn2)CN(C2CCN(C(=O)c3nc(C(F)(F)F)cs3)CC2)C1 [Example 344, [3-[4-(7H-Pyrrolo[2,3-d]pyrimidin-4-yl)-1H-pyrazol-1-yl]-1-(1-{[4-(trifluoromethyl)-1,3-thiazol-2-yl]carbonyl}piperidin-4-yl)azetidin-3-yl]acetonitrile] |
| ≤ 5 | 4.6 | ≤ 10 | CN(C)c1ccc(C(=O)N2CCC(N3CC(CC#N)(n4cc(-c5ncnc6[nH]ccc56)cn4)C3)CC2)cc1C#N [Example 59, 5-[(4-{3-(cyanomethyl)-3-[4-(7H-pyrrolo[2,3-d]pyrimidin-4-yl)-1H-pyrazol-1-yl]azetidin-1-yl}piperidin-1yl)carbonyl]-2-(dimethylamino)benzonitrile] |
